In patent US6525059B1, “Substituted pyrazoles as p38 kinase inhibitors” (G. D. Searle & Company, priority 1998, dated 2003):

Tests used:
human p38 kinase alpha = molecular target: T1, human p38 kinase alpha (Homo sapiens, UniProt Q16539); test: p38 kinase in vitro assay, phosphorylation of biotinylated PHAS-I with gamma 32P-ATP; format: biochemical; details: read-out: P38 alpha kinase IC50
T1 construct: The coding region of the human p38a cDNA was obtained by PCR-amplification from RNA isolated from the human monocyte cell line THP.1; GST (N); made in house; host or cells: E. coli DH10B
In short: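 MKK6-activated human p38α phosphorylates biotinylated PHAS-I with γ-32P-ATP in 25 mM HEPES pH 7.5, 10 mM Mg acetate, 50 μM unlabeled ATP, 1% DMSO, 30 °C for 1 h or overnight. Compounds at 100–0.001 μM (10-fold steps, triplicate); substrate captured on streptavidin filter plates and counted by scintillation.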

TNF-α = test: LPS stimulation of TNF production by U937 cells; format: cell-based, human; details: Homo sapiens; for inhibition at 1 µM: U-937, @ 1.0 uM, read-out: U937 Cell % inhib @ conc.; for IC50: U-937, TNF production, LPS-stimulated human U937 cells, read-out: U937 Cell IC50
In short: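 PMA-differentiated human U937 cells (20 ng/ml PMA, 24 h, then 24-48 h rest) at 2 million cells/ml, 0.1% DMSO final, stimulated with E. coli LPS (100 ng/ml final) for 4 h at 37° C. TNF-α in medium measured by ELISA; IC50 in μM.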

T1 sequence (Q16539 whole entry): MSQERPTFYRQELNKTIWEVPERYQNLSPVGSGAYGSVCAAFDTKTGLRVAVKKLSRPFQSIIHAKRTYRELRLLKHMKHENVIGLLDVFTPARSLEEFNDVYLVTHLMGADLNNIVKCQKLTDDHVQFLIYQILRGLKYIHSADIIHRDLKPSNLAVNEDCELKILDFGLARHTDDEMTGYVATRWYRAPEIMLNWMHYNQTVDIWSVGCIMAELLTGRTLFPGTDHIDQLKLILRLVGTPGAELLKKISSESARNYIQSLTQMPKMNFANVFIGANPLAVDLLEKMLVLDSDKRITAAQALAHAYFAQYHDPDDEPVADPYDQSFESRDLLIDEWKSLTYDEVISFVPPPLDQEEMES

IC50 (human p38 kinase alpha) [nM] | IC50 (TNF-α) [nM] | SMILES | inhibition at 1 µM (TNF-α) [%]
87 | – | CCS(=O)(=O)N[C@H](C)c1[nH]nc(-c2ccc(F)cc2)c1-c1ccncc1 [Example B-0395] | 48
97 | 440 | C[C@@H](NS(C)(=O)=O)c1[nH]nc(-c2ccc(F)cc2)c1-c1ccncc1 [Example B-0396] | –
140 | – | Cc1ccc(S(=O)(=O)N[C@H](C)c2[nH]nc(-c3ccc(F)cc3)c2-c2ccncc2)cc1 [Example B-0399] | 39
160 | – | COc1ccc(S(=O)(=O)N[C@H](C)c2[nH]nc(-c3ccc(F)cc3)c2-c2ccncc2)cc1OC [Example B-0400] | 25
460 | – | CC(C)NC(=O)N[C@H](C)c1[nH]nc(-c2ccc(F)cc2)c1-c1ccncc1 [Example B-0401] | 52
140 | 1510 | C[C@@H](NC(N)=O)c1[nH]nc(-c2ccc(F)cc2)c1-c1ccncc1 [Example B-0402] | –
1770 | 2420 | C[C@@H](NC(=O)NCc1ccccc1)c1[nH]nc(-c2ccc(F)cc2)c1-c1ccncc1 [Example B-0403] | –
310 | – | C[C@@H](NC(=O)N1CCCC1)c1[nH]nc(-c2ccc(F)cc2)c1-c1ccncc1 [Example B-0404] | 48
790 | – | C[C@@H](NC(=O)N1CCOCC1)c1[nH]nc(-c2ccc(F)cc2)c1-c1ccncc1 [Example B-0405] | 30
540 | – | C[C@@H](NC(=O)Nc1ccc(F)cc1)c1[nH]nc(-c2ccc(F)cc2)c1-c1ccncc1 [Example B-0406] | 35
760 | – | C[C@@H](NC(=O)N(C)C)c1[nH]nc(-c2ccc(F)cc2)c1-c1ccncc1 [Example B-0407] | 27
500 | – | CNC(=O)N[C@H](C)c1[nH]nc(-c2ccc(F)cc2)c1-c1ccncc1 [Example B-0408] | 50
620 | – | Cc1cccc(C)c1NC(=O)N[C@H](C)c1[nH]nc(-c2ccc(F)cc2)c1-c1ccncc1 [Example B-0411] | 50
240 | – | C=CCNC(=O)N[C@H](C)c1[nH]nc(-c2ccc(F)cc2)c1-c1ccncc1 [Example B-0412] | 48
180 | – | CCCNC(=O)N[C@H](C)c1[nH]nc(-c2ccc(F)cc2)c1-c1ccncc1 [Example B-0413] | 55
540 | – | C[C@@H](NC(=O)N[C@H](C)c1[nH]nc(-c2ccc(F)cc2)c1-c1ccncc1)c1ccccc1 [Example B-0414] | 25
220 | – | C[C@@H](NC(=O)Nc1cccc(F)c1)c1[nH]nc(-c2ccc(F)cc2)c1-c1ccncc1 [Example B-0418] | 27
180 | – | C[C@@H](NC(=O)Cc1cccs1)c1[nH]nc(-c2ccc(F)cc2)c1-c1ccncc1 [Example B-0423] | 33
83 | – | C[C@@H](NC(=O)C(C)(C)C)c1[nH]nc(-c2ccc(F)cc2)c1-c1ccncc1 [Example B-0424] | 32
260 | – | CCCOC(=O)N[C@H](C)c1[nH]nc(-c2ccc(F)cc2)c1-c1ccncc1 [Example B-0425] | 54
630 | – | C[C@@H](NC(=O)[C@H]1CCCN1)c1[nH]nc(-c2ccc(F)cc2)c1-c1ccncc1 [Example B-0427] | 39
270 | – | CC(C)OC(=O)N[C@H](C)c1[nH]nc(-c2ccc(F)cc2)c1-c1ccncc1 [Example B-0429] | 45
210 | – | CC(=O)Nc1ccc(S(=O)(=O)N[C@H](C)c2[nH]nc(-c3ccc(F)cc3)c2-c2ccncc2)cc1 [Example B-0431] | 64
120 | – | CC(NS(=O)(=O)CC12CCC(CC1=O)C2(C)C)c1[nH]nc(-c2ccc(F)cc2)c1-c1ccncc1 (stereo not drawn) [Example B-0434] | 65
2120 | – | Cc1cc(C)c(S(=O)(=O)N[C@H](C)c2[nH]nc(-c3ccc(F)cc3)c2-c2ccncc2)c(C)c1 [Example B-0439] | 65
800 | – | C[C@@H](NS(=O)(=O)c1cccc2ccccc12)c1[nH]nc(-c2ccc(F)cc2)c1-c1ccncc1 [Example B-0441] | 58
2010 | – | C[C@@H](NS(=O)(=O)c1cccc2cccnc12)c1[nH]nc(-c2ccc(F)cc2)c1-c1ccncc1 [Example B-0443] | 71

IC50 (human p38 kinase alpha) [nM] | IC50 (TNF-α) [nM] | SMILES | inhibition at 1 µM (TNF-α) [%]
780 | – | CC(C)c1ccc(S(=O)(=O)N[C@H](C)c2[nH]nc(-c3ccc(F)cc3)c2-c2ccncc2)cc1 [Example B-0446] | 80
190 | – | Cc1c(Cl)cccc1S(=O)(=O)N[C@H](C)c1[nH]nc(-c2ccc(F)cc2)c1-c1ccncc1 [Example B-0447] | 71
830 | – | C[C@@H](NS(=O)(=O)c1ccc(F)cc1Cl)c1[nH]nc(-c2ccc(F)cc2)c1-c1ccncc1 [Example B-0449] | 81
260 | – | C[C@@H](NS(=O)(=O)c1ccccc1C#N)c1[nH]nc(-c2ccc(F)cc2)c1-c1ccncc1 [Example B-0450] | 81
700 | – | C[C@@H](NS(=O)(=O)c1cc(Cl)c(Cl)s1)c1[nH]nc(-c2ccc(F)cc2)c1-c1ccncc1 [Example B-0452] | 75
470 | – | C[C@@H](NS(=O)(=O)c1c(Cl)cccc1Cl)c1[nH]nc(-c2ccc(F)cc2)c1-c1ccncc1 [Example B-0453] | 75
1810 | – | CCCCOc1ccc(S(=O)(=O)N[C@H](C)c2[nH]nc(-c3ccc(F)cc3)c2-c2ccncc2)cc1 [Example B-0456] | 67
89 | – | COc1ccc(OC)c(S(=O)(=O)N[C@H](C)c2[nH]nc(-c3ccc(F)cc3)c2-c2ccncc2)c1 [Example B-0457] | 81
33 | – | C[C@@H](NS(=O)(=O)c1ccccc1C(F)(F)F)c1[nH]nc(-c2ccc(F)cc2)c1-c1ccncc1 [Example B-0458] | 70
52 | – | C[C@@H](NS(=O)(=O)c1ccccc1Cl)c1[nH]nc(-c2ccc(F)cc2)c1-c1ccncc1 [Example B-0463] | 95
84 | – | C[C@@H](NS(=O)(=O)c1ccc(Cl)c(Cl)c1)c1[nH]nc(-c2ccc(F)cc2)c1-c1ccncc1 [Example B-0465] | 98
31 | – | Cc1ccc(C)c(S(=O)(=O)N[C@H](C)c2[nH]nc(-c3ccc(F)cc3)c2-c2ccncc2)c1 [Example B-0468] | 93
56 | – | Cc1ccccc1S(=O)(=O)N[C@H](C)c1[nH]nc(-c2ccc(F)cc2)c1-c1ccncc1 [Example B-0469] | 92
63 | – | COc1ccc(C)cc1S(=O)(=O)N[C@H](C)c1[nH]nc(-c2ccc(F)cc2)c1-c1ccncc1 [Example B-0470] | 92
27 | – | C[C@@H](NS(=O)(=O)c1cccc(C(F)(F)F)c1)c1[nH]nc(-c2ccc(F)cc2)c1-c1ccncc1 [Example B-0471] | 97
190 | – | C[C@@H](NS(=O)(=O)[C@@]12CC[C@H](CC1=O)C2(C)C)c1[nH]nc(-c2ccc(F)cc2)c1-c1ccncc1 [Example B-0472] | 54
1480 | – | C[C@@H](NS(=O)(=O)c1cccc2nonc12)c1[nH]nc(-c2ccc(F)cc2)c1-c1ccncc1 [Example B-0477] | 96
34 | – | COc1ccc(Cl)cc1S(=O)(=O)N[C@H](C)c1[nH]nc(-c2ccc(F)cc2)c1-c1ccncc1 [Example B-0478] | 87
120 | – | C[C@@H](NS(=O)(=O)c1ccc(CNC(=O)c2ccccc2)s1)c1[nH]nc(-c2ccc(F)cc2)c1-c1ccncc1 [Example B-0480] | 88
970 | – | Cc1c(C)c(S(=O)(=O)N[C@H](C)c2[nH]nc(-c3ccc(F)cc3)c2-c2ccncc2)c(C)c2c1OC(C)(C)CC2 [Example B-0482] | 68
570 | – | C[C@@H](NS(=O)(=O)c1ccc(-c2ccccn2)s1)c1[nH]nc(-c2ccc(F)cc2)c1-c1ccncc1 [Example B-0483] | 68
240 | – | C[C@@H](NS(=O)(=O)c1cn(C)cn1)c1[nH]nc(-c2ccc(F)cc2)c1-c1ccncc1 [Example B-0486] | 80
620 | – | C[C@@H](NS(=O)(=O)c1ccc(S(=O)(=O)c2ccccc2)s1)c1[nH]nc(-c2ccc(F)cc2)c1-c1ccncc1 [Example B-0488] | 88
300 | – | C[C@@H](NS(=O)(=O)c1ccccc1S(C)(=O)=O)c1[nH]nc(-c2ccc(F)cc2)c1-c1ccncc1 [Example B-0489] | 80
69 | – | Cc1ccccc1C(=O)N[C@H](C)c1[nH]nc(-c2ccc(F)cc2)c1-c1ccncc1 [Example B-0492] | 42
300 | – | C[C@@H](NC(=O)c1ccc(Cl)cc1)c1[nH]nc(-c2ccc(F)cc2)c1-c1ccncc1 [Example B-0493] | 36
120 | – | C[C@@H](NC(=O)c1cccc(C(F)(F)F)c1)c1[nH]nc(-c2ccc(F)cc2)c1-c1ccncc1 [Example B-0495] | 25
